{"source": "patent US20050090474A1", "about": "“Methods and compositions for enhancing and inhibiting fertilization” (priority 2002, published 2005)", "type_in_all_cases": "cell-based", "key": {"[1]": {"system": "human spermatozoa", "experiment": "Drug effect on sperm motility (progressive flagellar motility)", "method": "FIG. 8 is a graphic representation of the effect of progesterone and MAPK inhibitors on human spermatozoa motility. Human spermatozoa (5×10^7/ml) were incubated with PD98059 (ERK inhibitor, at 50 μM, FIG. 8, marked with “PD”) and SB203580 (p38 inhibitor, at 50 μM, FIG. 8, marked with “SB”), in the presence or absence of progesterone (at 5 μg/ml, FIG. 8, marked with “P”) for the indicated time. Percent motile spermatozoa was determined in aliquots of 10 μl. Results are expressed as mean ±SEM of three experiments.\nIsolation of human sperm samples—Human semen were obtained upon informed consent from healthy donors having normal sperm density, motility and morphology (according to the World Health Organization (WHO) guidelines of 1992) following 3 days of sexual abstinence. Sperm samples were collected into sterile 50 ml tubes and semen was liquefied for 1 hour at 36° C., washed twice with HAM's F-10 medium (Biological Industries, Beth Ha'Emek, Israel) supplemented with 0.3% bovine serum albumin (BSA) and separated from non-sperm cells by a Percoll gradient centrifugation (Sigma-Aldrich Corp., St Louis, Mo., USA) essentially as described elsewhere (Rotem et al., 1990a, b). The resultant sperm sample contained approx. 50×10^6 sperm/ml.\n(§1) Sperm capacitation—Isolated sperm samples were incubated for 3 hours at 36° C. in HAM's F-10 medium supplemented with 0.3% BSA as in Rotem et al., 1990a, b\nDrug effect on sperm motility—To test the effect of MAPK inhibitors and progesterone on sperm motility the following drugs were added to the incubation medium: PD98059 (ERK inhibitor, Biomol, Plymouth Meeting, Pa., USA), SB203580 (p38 inhibitor, Biomol, Plymouth Meeting, Pa., USA) and progesterone (Sigma-Aldrich Corp., St Louis, Mo., USA). Progressive flagellar motility was determined as described elsewhere (Rotem et al., 1990a, b)."}, "[2]": {"system": "capacitated human spermatozoa", "experiment": "Drug effect on acrosome reaction", "design": "Acrosome reaction: unit not given here", "details": "for Acrosome reaction (AR) stimulated by inducer: inducer alone, stimulation over control; for AR stimulated by A23187 in the presence of inhibitor / stimulated AR observed in the presence of progesterone and hZP-3, effect of inhibitor: Table 1; for stimulated AR observed in the presence of progesterone and hZP-3, effect of inhibitor: progesterone- and hZP-3-stimulated AR", "method": "as §1\nDrug effect on acrosome reaction—To test the involvement of MAPK cascade proteins on acrosome reaction the following drugs were added to the incubation medium: Progesterone (Sigma-Aldrich Corp., St Louis, Mo., USA), hZP-3 (human zona pellucida protein 3, obtained from P. Salling, N.C., USA) diluted in MOCK (F-10 medium containing 0.1% DMSO, Biological Industries, Beth Ha'Emek, Israel), A23187 (calcium ionophore, Calbiochem, La Jolla, Calif., USA), PD98059 (Biomol, Plymouth Meeting, Pa., USA), SB203580 (Biomol, Plymouth Meeting, Pa., USA) and GF109203X (PKC inhibitor, Calbiochem, La Jolla, Calif., USA). Acrosome reaction was determined as described elsewhere (Rotem et al., 1992)."}, "[3]": {"system": "ERK 1 and ERK 2", "experiment": "Determination of phosphorylated ERK by in-gel kinase assay", "details": "human spermatozoa stimulated by progesterone 5 μg/ml, bands of 44 and 42 kDa, data not shown", "method": "Determination of phosphorylated ERK by in-gel kinase assay—To further substantiate its role in spermatozoa maturation the phosphorylation state of ERK was determined by in-gel kinase assay as described elsewhere (Naor et al., 1999). […] Mitogen-activated protein (MAP) kinase pathways: regulation and physiological functions. Endocr. Rev. 22: 153-183] are active in human spermatozoa."}, "[4]": {"system": "ERK", "experiment": "Western blot with antibody against phosphorylated (active) ERK", "details": "capacitated human spermatozoa, 0.2 M vanadate, 60 min, FIG. 4a", "method": "(§2) FIGS. 4a-f are autoradiograms depicting expression and activity of MAPK proteins in human spermatozoa. LβT2 cells were treated for 60 min with 50 ng/ml 12-O-Tetradecanoylphorbol-13-acetate (TPA, FIGS. 4a-f, lane 1) and capacitated human spermatozoa were treated for 60 min with 0.2 M vanadate (FIGS. 4a-f, lane 3) or were remained untreated (FIGS. 4a-f, lane 2). Cell lysates were subsequently prepared and subjected to Western blot analysis with antibodies directed at the active, phosphorylated form of ERK, p38 and JNK (FIGS. 4a, 4c and 4e, respectively), or with antibodies directed at the unphosphorylated form of ERK, p38 and JNK (FIGS. 4b, 4d and 4f, respectively).\n(§3) Western blot analysis—Western blot analysis was effected with antibodies directed at ERK, JNK and p38 proteins as well as with antibodies directed at the phosphorylated forms of these MAPK proteins (Sigma Rehovot, Israel). The assay was performed as previously described (Yung et al., 1997).\n(§4) Molecular identification of MAPK cascade proteins in human spermatozoa—Capacitated human spermatozoa cell lysate were generated as described and subjected to Western blot analysis using MAPK antibodies specific to either the phosphorylated or the general forms of ERK, p38 and INK proteins. […]"}, "[5]": {"system": "p38", "experiment": "Western blot with antibody against phosphorylated (active) p38", "details": "capacitated human spermatozoa, 0.2 M vanadate, 60 min, FIG. 4c", "method": "as §2, §3, §4"}}, "note": "“Also recorded” adds a separate entry of the source."}
{"smiles": "CC(=O)[C@H]1CC[C@H]2[C@@H]3CCC4=CC(=O)CC[C@]4(C)[C@H]3CC[C@]12C", "note": "[Progesterone, progesterone]", "values": [{"measurement": "effect on progressive flagellar motility", "setting": "[1]; human spermatozoa, 5 μg/ml progesterone, FIG. 8", "value": "no effect"}, {"measurement": "Acrosome reaction (AR) stimulated by inducer", "setting": "[2]", "value": 50, "unit": "%"}, {"measurement": "Acrosome reaction", "setting": "[2]; progesterone 5 μg/ml, no inhibitor (Control)", "value": 31}, {"measurement": "phosphorylation state of ERK (in-gel kinase assay)", "setting": "[3]", "value": "exhibited two phosphorylated bands"}]}
{"smiles": "C[S+]([O-])c1ccc(-c2nc(-c3ccncc3)c(-c3ccc(F)cc3)[nH]2)cc1", "note": "(centres unmarked) [SB203580]", "values": [{"measurement": "SB203580-induced increase in progressive flagellar motility", "setting": "[1]; 50 μM SB203580 co-introduced with 5 μg/ml progesterone, FIG. 8 SB+P", "value": "completely abolished"}, {"measurement": "sperm motility (percent motile spermatozoa), FIG. 8 legend", "setting": "[1]; SB203580 50 μM in the presence of progesterone 5 μg/ml", "value": "normal motility"}, {"measurement": "sperm motility (percent motile spermatozoa), FIG. 8 legend", "setting": "[1]; human spermatozoa 5×10^7/ml, SB203580 50 μM", "value": "significant increase"}, {"measurement": "increase in progressive flagellar motility", "setting": "[1]; human spermatozoa, 50 μM SB203580, FIG. 8", "value": "over 120%"}, {"measurement": "AR stimulated by A23187 in the presence of inhibitor", "setting": "[2]", "value": "persisted"}, {"measurement": "non-specific increase in AR stimulated by MOCK, effect of inhibitor", "setting": "[2]; MOCK-stimulated AR", "value": "inhibited"}, {"measurement": "Acrosome reaction", "setting": "[2]; SB203580 20 μM, no inducer (Control)", "value": 17}, {"measurement": "Acrosome reaction", "setting": "[2]; SB203580 20 μM, with A23187 10 μM", "value": 49}, {"measurement": "Acrosome reaction", "setting": "[2]; SB203580 20 μM, with MOCK", "value": 15}, {"measurement": "Acrosome reaction", "setting": "[2]; SB203580 20 μM, with hZP3 50 ng/ml", "value": 28}, {"measurement": "Acrosome reaction", "setting": "[2]; SB203580 20 μM, with progesterone 5 μg/ml", "value": 11}, {"measurement": "stimulated AR observed in the presence of progesterone and hZP-3, effect of inhibitor", "setting": "[2]", "value": "markedly inhibited"}]}
{"smiles": "COc1cccc(-c2cc(=O)c3ccccc3o2)c1N", "note": "[PD98059]", "values": [{"measurement": "progressive flagellar motility decreased to", "setting": "[1]; human spermatozoa, 50 μM PD98059, transient, FIG. 8", "value": 50, "unit": "%"}, {"measurement": "AR stimulated by A23187 in the presence of inhibitor", "setting": "[2]", "value": "persisted"}, {"measurement": "Acrosome reaction", "setting": "[2]; PD98059 5 μM, no inducer (Control)", "value": 17}, {"measurement": "Acrosome reaction", "setting": "[2]; PD98059 5 μM, with A23187 10 μM", "value": 50}, {"measurement": "Acrosome reaction", "setting": "[2]; PD98059 5 μM, with MOCK", "value": 25}, {"measurement": "Acrosome reaction", "setting": "[2]; PD98059 5 μM, with hZP3 50 ng/ml", "value": 29}, {"measurement": "Acrosome reaction", "setting": "[2]; PD98059 5 μM, with progesterone 5 μg/ml", "value": 18}, {"measurement": "stimulated AR observed in the presence of progesterone and hZP-3, effect of inhibitor", "setting": "[2]", "value": "markedly inhibited"}]}
{"smiles": "CN(C)CCCn1cc(C2=C(c3c[nH]c4ccccc34)C(=O)NC2=O)c2ccccc21", "note": "[GF109203X]", "values": [{"measurement": "AR stimulated by A23187 in the presence of inhibitor", "setting": "[2]", "value": "persisted"}, {"measurement": "Acrosome reaction", "setting": "[2]; GF109203X 100 nM, no inducer (Control)", "value": 19}, {"measurement": "Acrosome reaction", "setting": "[2]; GF109203X 100 nM, with A23187 10 μM", "value": 48}, {"measurement": "Acrosome reaction", "setting": "[2]; GF109203X 100 nM, with MOCK", "value": 28}, {"measurement": "Acrosome reaction", "setting": "[2]; GF109203X 100 nM, with hZP3 50 ng/ml", "value": 18}, {"measurement": "Acrosome reaction", "setting": "[2]; GF109203X 100 nM, with progesterone 5 μg/ml", "value": 15}, {"measurement": "stimulated AR observed in the presence of progesterone and hZP-3, effect of inhibitor", "setting": "[2]", "value": "markedly inhibited"}]}
{"smiles": "[O]=[V]([O-])([O-])[O-]", "note": "[vanadate]", "values": [{"measurement": "phosphorylated ERK (Western blot signal)", "setting": "[4]", "value": "could be detected only following treatment; also recorded: increased band intensity"}, {"measurement": "phosphorylated form of p38 (Western blot signal)", "setting": "[5]", "value": "regardless of vanadate treatment"}]}
{"smiles": "CNc1ccc2oc(C[C@H]3O[C@@]4(CC[C@H]3C)O[C@H]([C@H](C)C(=O)c3ccc[nH]3)[C@H](C)C[C@H]4C)nc2c1C(=O)O", "note": "[A23187]", "values": [{"measurement": "Acrosome reaction", "setting": "[2]; A23187 10 μM, no inhibitor (Control)", "value": 51}, {"measurement": "Acrosome reaction (AR) stimulated by inducer", "setting": "[2]", "value": 140, "unit": "%"}]}
